Test results published in PubChem BioAssay (NCI).
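Following 48 hours of exposure in 96-well plates, responses at five concentrations were used to interpolate endpoints linearly. TGI denotes the concentration required for complete inhibition of growth.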

How the values were obtained:
Assay in all cases: growth of human tumour cells (NCI), 48 h
T-47D breast = test system: T-47D breast
786-0 renal = test system: 786-0 renal
CAKI-1 renal = test system: CAKI-1 renal
U251 CNS = test system: U251 CNS
TK-10 renal = test system: TK-10 renal
MDA-MB-435 = test system: MDA-MB-435
ACHN renal = test system: ACHN renal
COLO 205 colon = test system: COLO 205 colon
CCRF-CEM leukemia = test system: CCRF-CEM leukemia
SF-268 CNS = test system: SF-268 CNS
MCF7 breast = test system: MCF7 breast
SW-620 colon = test system: SW-620 colon
DU-145 prostate = test system: DU-145 prostate
MDA-MB-231 breast = test system: MDA-MB-231 breast
UACC-257 melanoma = test system: UACC-257 melanoma
SF-539 CNS = test system: SF-539 CNS
NCI-H226 lung = test system: NCI-H226 lung
HS 578T breast = test system: HS 578T breast
OVCAR-4 ovarian = test system: OVCAR-4 ovarian
IGROV1 ovarian = test system: IGROV1 ovarian
A549 NSCLC = test system: A549 NSCLC
SF-295 CNS = test system: SF-295 CNS
HOP-62 NSCLC = test system: HOP-62 NSCLC
UO-31 renal = test system: UO-31 renal
SK-MEL-2 melanoma = test system: SK-MEL-2 melanoma
HCC-2998 colon = test system: HCC-2998 colon
NCI-H23 lung = test system: NCI-H23 lung
A498 renal = test system: A498 renal
OVCAR-8 ovarian = test system: OVCAR-8 ovarian
RPMI-8226 leukemia = test system: RPMI-8226 leukemia
OVCAR-5 ovarian = test system: OVCAR-5 ovarian
SK-MEL-5 melanoma = test system: SK-MEL-5 melanoma
MDA-N = test system: MDA-N
NCI/ADR-RES ovarian = test system: NCI/ADR-RES ovarian
HL-60(TB) leukemia = test system: HL-60(TB) leukemia
NCI-H522 lung = test system: NCI-H522 lung
SK-MEL-28 melanoma = test system: SK-MEL-28 melanoma
MOLT-4 leukemia = test system: MOLT-4 leukemia
HOP-92 NSCLC = test system: HOP-92 NSCLC
SN12C renal = test system: SN12C renal
PC-3 prostate = test system: PC-3 prostate
HT29 colon = test system: HT29 colon
NCI-H460 lung = test system: NCI-H460 lung
SR leukemia = test system: SR leukemia
SK-OV-3 ovarian = test system: SK-OV-3 ovarian
HCT-116 colon = test system: HCT-116 colon
HCT-15 colon = test system: HCT-15 colon
MALME-3M melanoma = test system: MALME-3M melanoma
SNB-19 CNS = test system: SNB-19 CNS
EKVX NSCLC = test system: EKVX NSCLC
KM12 colon = test system: KM12 colon
M14 melanoma = test system: M14 melanoma
SNB-75 CNS = test system: SNB-75 CNS
OVCAR-3 ovarian = test system: OVCAR-3 ovarian
LOX IMVI melanoma = test system: LOX IMVI melanoma
RXF 393 renal = test system: RXF 393 renal
K-562 leukemia = test system: K-562 leukemia
UACC-62 melanoma = test system: UACC-62 melanoma

Nc1ncnc2c1ncn2C1OC(CO)C2OC21 (stereo not drawn)
TGI (T-47D breast): > 100 µM
TGI (786-0 renal): > 10 µM
TGI (CAKI-1 renal): > 100 µM
TGI (U251 CNS): > 100 µM
TGI (TK-10 renal): > 100 µM
TGI (MDA-MB-435): > 10 µM
TGI (ACHN renal): > 100 µM
TGI (COLO 205 colon): > 100 µM
TGI (CCRF-CEM leukemia): > 100 µM
TGI (SF-268 CNS): > 100 µM
TGI (MCF7 breast): > 100 µM
TGI (SW-620 colon): > 100 µM
TGI (DU-145 prostate): > 100 µM
TGI (MDA-MB-231 breast): > 100 µM
TGI (UACC-257 melanoma): > 100 µM
TGI (SF-539 CNS): > 100 µM
TGI (NCI-H226 lung): > 100 µM
TGI (HS 578T breast): > 100 µM
TGI (OVCAR-4 ovarian): > 100 µM
TGI (IGROV1 ovarian): > 100 µM
TGI (A549 NSCLC): > 100 µM
TGI (SF-295 CNS): > 100 µM
TGI (HOP-62 NSCLC): > 100 µM
TGI (UO-31 renal): > 100 µM
TGI (SK-MEL-2 melanoma): > 100 µM
TGI (HCC-2998 colon): > 100 µM
TGI (NCI-H23 lung): > 100 µM
TGI (A498 renal): > 100 µM
TGI (OVCAR-8 ovarian): > 100 µM
TGI (RPMI-8226 leukemia): > 100 µM
TGI (OVCAR-5 ovarian): > 100 µM
TGI (SK-MEL-5 melanoma): > 100 µM
TGI (MDA-N): > 10 µM
TGI (NCI/ADR-RES ovarian): > 10 µM
TGI (HL-60(TB) leukemia): > 100 µM
TGI (NCI-H522 lung): > 100 µM
TGI (SK-MEL-28 melanoma): > 100 µM
TGI (MOLT-4 leukemia): > 100 µM
TGI (HOP-92 NSCLC): > 100 µM
TGI (SN12C renal): > 100 µM
TGI (PC-3 prostate): > 100 µM
TGI (HT29 colon): > 100 µM
TGI (NCI-H460 lung): > 10 µM
TGI (SR leukemia): > 100 µM
TGI (SK-OV-3 ovarian): > 100 µM
TGI (HCT-116 colon): > 100 µM
TGI (HCT-15 colon): > 10 µM
TGI (MALME-3M melanoma): > 10 µM
TGI (SNB-19 CNS): > 100 µM
TGI (EKVX NSCLC): > 100 µM
TGI (KM12 colon): > 100 µM
TGI (M14 melanoma): > 10 µM
TGI (SNB-75 CNS): > 100 µM
TGI (OVCAR-3 ovarian): > 10 µM
TGI (LOX IMVI melanoma): > 100 µM
TGI (RXF 393 renal): > 100 µM
TGI (K-562 leukemia): > 100 µM
TGI (UACC-62 melanoma): > 100 µM

Cc1cc2nn(C3CCCO3)nc2cc1C (stereo not drawn)
TGI (T-47D breast): > 100 µM
TGI (786-0 renal): > 100 µM
TGI (CAKI-1 renal): > 100 µM
TGI (U251 CNS): > 100 µM
TGI (TK-10 renal): > 100 µM
TGI (MDA-MB-435): > 100 µM
TGI (COLO 205 colon): > 100 µM
TGI (CCRF-CEM leukemia): > 100 µM
TGI (SF-268 CNS): > 100 µM
TGI (MCF7 breast): > 100 µM
TGI (DU-145 prostate): > 100 µM
TGI (MDA-MB-231 breast): > 100 µM
TGI (UACC-257 melanoma): > 100 µM
TGI (SF-539 CNS): > 100 µM
TGI (NCI-H226 lung): > 100 µM
TGI (HS 578T breast): > 100 µM
TGI (OVCAR-4 ovarian): > 100 µM
TGI (IGROV1 ovarian): > 100 µM
TGI (A549 NSCLC): > 100 µM
TGI (SF-295 CNS): > 100 µM
TGI (HOP-62 NSCLC): > 100 µM
TGI (SK-MEL-2 melanoma): > 100 µM
TGI (HCC-2998 colon): > 100 µM
TGI (NCI-H23 lung): > 100 µM
TGI (A498 renal): > 100 µM
TGI (OVCAR-8 ovarian): > 100 µM
TGI (OVCAR-5 ovarian): > 100 µM
TGI (SK-MEL-5 melanoma): > 100 µM
TGI (MDA-N): > 100 µM
TGI (NCI/ADR-RES ovarian): > 100 µM
TGI (NCI-H522 lung): > 100 µM
TGI (MOLT-4 leukemia): > 100 µM
TGI (SN12C renal): > 100 µM
TGI (PC-3 prostate): > 100 µM
TGI (HT29 colon): > 100 µM
TGI (NCI-H460 lung): > 100 µM
TGI (SR leukemia): > 100 µM
TGI (SK-OV-3 ovarian): > 100 µM
TGI (HCT-116 colon): > 100 µM
TGI (HCT-15 colon): > 100 µM
TGI (MALME-3M melanoma): > 100 µM
TGI (EKVX NSCLC): > 100 µM
TGI (M14 melanoma): > 100 µM
TGI (SNB-75 CNS): > 100 µM
TGI (OVCAR-3 ovarian): > 100 µM
TGI (RXF 393 renal): > 100 µM
TGI (K-562 leukemia): > 100 µM
TGI (UACC-62 melanoma): > 100 µM

Nc1nnnn1NC(=O)NCCCl
TGI (T-47D breast): > 10 µM
TGI (786-0 renal): > 10 µM
TGI (CAKI-1 renal): > 10 µM
TGI (U251 CNS): > 10 µM
TGI (TK-10 renal): > 10 µM
TGI (MDA-MB-435): > 10 µM
TGI (ACHN renal): > 10 µM
TGI (COLO 205 colon): > 10 µM
TGI (CCRF-CEM leukemia): > 10 µM
TGI (SF-268 CNS): > 10 µM
TGI (MCF7 breast): > 10 µM
TGI (SW-620 colon): > 10 µM
TGI (DU-145 prostate): > 10 µM
TGI (MDA-MB-231 breast): > 10 µM
TGI (UACC-257 melanoma): > 10 µM
TGI (SF-539 CNS): > 10 µM
TGI (NCI-H226 lung): > 10 µM
TGI (HS 578T breast): > 10 µM
TGI (OVCAR-4 ovarian): > 10 µM
TGI (IGROV1 ovarian): > 10 µM
TGI (A549 NSCLC): > 10 µM
TGI (SF-295 CNS): > 10 µM
TGI (HOP-62 NSCLC): > 10 µM
TGI (UO-31 renal): > 10 µM
TGI (SK-MEL-2 melanoma): > 10 µM
TGI (HCC-2998 colon): > 10 µM
TGI (NCI-H23 lung): > 10 µM
TGI (A498 renal): > 10 µM
TGI (OVCAR-8 ovarian): > 10 µM
TGI (RPMI-8226 leukemia): > 10 µM
TGI (SK-MEL-5 melanoma): > 10 µM
TGI (MDA-N): > 10 µM
TGI (NCI/ADR-RES ovarian): > 10 µM
TGI (HL-60(TB) leukemia): > 10 µM
TGI (NCI-H522 lung): > 10 µM
TGI (SK-MEL-28 melanoma): > 10 µM
TGI (MOLT-4 leukemia): > 10 µM
TGI (HOP-92 NSCLC): > 10 µM
TGI (SN12C renal): > 10 µM
TGI (PC-3 prostate): > 10 µM
TGI (HT29 colon): > 10 µM
TGI (NCI-H460 lung): > 10 µM
TGI (SR leukemia): > 10 µM
TGI (SK-OV-3 ovarian): > 10 µM
TGI (HCT-116 colon): > 10 µM
TGI (HCT-15 colon): > 10 µM
TGI (MALME-3M melanoma): > 10 µM
TGI (SNB-19 CNS): > 10 µM
TGI (EKVX NSCLC): > 10 µM
TGI (KM12 colon): > 10 µM
TGI (M14 melanoma): > 10 µM
TGI (SNB-75 CNS): > 10 µM
TGI (OVCAR-3 ovarian): > 10 µM
TGI (LOX IMVI melanoma): > 10 µM
TGI (RXF 393 renal): > 10 µM
TGI (K-562 leukemia): > 10 µM
TGI (UACC-62 melanoma): > 10 µM
